According to US20150291598A1 (NOVARTIS AG, priority 2012, published 2015):

These compounds were tested on P. falciparum (NF54 or 3D7 strain) (assay: Assay for P. falciparum proliferation in infected human blood cells (SYBR Green)). Conditions: Plasmodium falciparum, Erythrocyte, 72 h, NF54 or 3D7 infected human erythrocytes, 72 hours; read-out: EC50 (nM), inhibitory efficacy in delaying P. falciparum proliferation in infected human blood cells.
Type: cell-based, Plasmodium falciparum
Procedure, shortened: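 Infected erythrocytes (NF54 or 3D7; final 2.5% hematocrit, 0.3% parasitemia) were incubated with compounds for 72 h at 37 °C in low oxygen (3% O2, 4% CO2, 93% N2).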

| EC50 [nM] | Structure (SMILES) |
| --- | --- |
| 4250 | CN(C(=O)c1cn2c(-c3ccc(C(F)(F)F)cc3)cnc2cn1)c1ccc(OC(F)(F)F)cc1 [Compound 173, N-methyl-N-[4-(trifluoromethoxy)phenyl]-3-[4-(trifluoromethyl)phenyl]imidazo[1,2-a]pyrazine-6-carboxamide] |
| 4750 | CN(C(=O)c1cn2c(-c3ccc(C(F)(F)F)cc3)cnc2cn1)c1nccn1C [Compound 174, N-methyl-N-(1-methyl-1H-imidazol-2-yl)-3-[4-(trifluoromethyl)phenyl]imidazo[1,2-a]pyrazine-6-carboxamide] |
| 3280 | CN(C(=O)c1cn2c(-c3cccc(C(F)(F)F)c3)cnc2cn1)c1ccc(C#N)cc1 [Compound 175, N-(4-cyanophenyl)-N-methyl-3-[3-(trifluoromethyl)phenyl]imidazo[1,2-a]pyrazine-6-carboxamide] |
| > 10000 | O=C(c1cn2c(-c3ccc(C(F)(F)F)cc3)cnc2cn1)N1CCc2cc(F)ccc21 [Compound 176, 5-fluoro-1-({3-[4-(trifluoromethyl)phenyl]imidazo[1,2-a]pyrazin-6-yl}carbonyl)-2,3-dihydro-1H-indole] |
| 2400 | CN(C(=O)c1cn2c(-c3ccc(C(F)(F)F)cc3)cnc2cn1)c1cccc(Br)c1 [Compound 183, N-(3-bromophenyl)-N-methyl-3-[4-(trifluoromethyl)phenyl]imidazo[1,2-a]pyrazine-6-carboxamide] |
| 9170 | CN(C(=O)c1cn2c(-c3ccc(CN)cc3)cnc2cn1)c1ccc(C#N)cc1 [Compound 186, 3-[4-(aminomethyl)phenyl]-N-(4-cyanophenyl)-N-methylimidazo[1,2-a]pyrazine-6-carboxamide] |
| 1380 | CN(C(=O)c1cn2c(-c3ccc(C(F)(F)F)nc3)cnc2cn1)c1ccc(C#N)cc1 [Compound 187, N-(4-cyanophenyl)-N-methyl-3-[6-(trifluoromethyl)pyridin-3-yl]imidazo[1,2-a]pyrazine-6-carboxamide] |
| 6240 | Cc1cccc(CN(C)C(=O)c2cn3c(-c4ccc(C(F)(F)F)cc4)cnc3cn2)n1 [Compound 190, N-methyl-N-[(6-methylpyridin-2-yl)methyl]-3-[4-(trifluoromethyl)phenyl]imidazo[1,2-a]pyrazine-6-carboxamide] |
| 7390 | CN(Cc1ccc(F)cc1)C(=O)c1cn2c(-c3ccc(C(F)(F)F)cc3)cnc2cn1 [Compound 192, N-[(4-fluorophenyl)methyl]-N-methyl-3-[4-(trifluoromethyl)phenyl]imidazo[1,2-a]pyrazine-6-carboxamide] |
| 6950 | CN(Cc1cccnc1)C(=O)c1cn2c(-c3ccc(C(F)(F)F)cc3)cnc2cn1 [Compound 194, N-methyl-N-(pyridin-3-ylmethyl)-3-[4-(trifluoromethyl)phenyl]imidazo[1,2-a]pyrazine-6-carboxamide] |
| > 9760 | CN(C(=O)c1cn2c(-c3ccc(C(F)(F)F)cc3)cnc2cn1)c1ccc(-n2ccc(C(F)(F)F)n2)cc1 [Compound 206, -methyl-N-{4-[3-(trifluoromethyl)-1H-pyrazol-1-yl]phenyl}-3-[4-(trifluoromethyl)phenyl]imidazo[1,2-a]pyrazine-6-carboxamide] |
| 4600 | CN(C)Cc1ccc(-c2cnc3cnc(C(=O)N(C)c4ccc(C#N)cc4)cn23)cc1 [Compound 207, N-(4-cyanophenyl)-3-{4-[(dimethylamino)methyl]phenyl}-N-methylimidazo[1,2-a]pyrazine-6-carboxamide] |

Second part, the compound before the results:

| Structure (SMILES) | EC50 [nM] |
| --- | --- |
| CN(C(=O)c1cn2c(-c3ccc(Oc4ccccc4)cc3)cnc2cn1)c1ccc(C#N)cc1 [Compound 177, N-(4-cyanophenyl)-N-methyl-3-(4-phenoxyphenyl)imidazo[1,2-a]pyrazine-6-carboxamide] | 6750 |
| CN(C(=O)c1cn2c(-c3cnn(Cc4ccccc4)c3)cnc2cn1)c1ccc(C#N)cc1 [Compound 178, 3-(1-benzyl-1H-pyrazol-4-yl)-N-(4-cyanophenyl)-N-methylimidazo[1,2-a]pyrazine-6-carboxamide] | 6510 |
| CN(C(=O)c1cn2c(-c3ccc(Cl)cc3C(F)(F)F)cnc2cn1)c1ccc(C#N)cc1 [Compound 179, 3-[4-chloro-2-(trifluoromethyl)phenyl]-N-(4-cyanophenyl)-N-methylimidazo[1,2-a]pyrazine-6-carboxamide] | 4400 |
| CN(C(=O)c1cn2c(-c3ccc(-c4nnn[nH]4)cc3)cnc2cn1)c1ccc(C#N)cc1 [Compound 180, N-(4-cyanophenyl)-N-methyl-3-[4-(1H-1,2,3,4-tetrazol-5-yl)phenyl]imidazo[1,2-a]pyrazine-6-carboxamide] | 4340 |
| CN(C(=O)c1cn2c(-c3ccc(N4CCCC4)cc3)cnc2cn1)c1ccc(C#N)cc1 [Compound 181, N-(4-cyanophenyl)-N-methyl-3-[4-(pyrrolidin-1-yl)phenyl]imidazo[1,2-a]pyrazine-6-carboxamide] | 723 |
| CN(C(=O)c1cn2c(-c3ccc(-c4ccn[nH]4)cc3)cnc2cn1)c1ccc(C#N)cn1 [Compound 182, N-(5-cyanopyridin-2-yl)-N-methyl-3-[4-(1H-pyrazol-5-yl)phenyl]imidazo[1,2-a]pyrazine-6-carboxamide] | 2260 |
| CN(C(=O)c1cn2c(-c3cncc(S(N)(=O)=O)c3)cnc2cn1)c1ccc(C#N)cc1 [Compound 184, N-(4-cyanophenyl)-N-methyl-3-(5-sulfamoylpyridin-3-yl)imidazo[1,2-a]pyrazine-6-carboxamide] | > 10000 |
| CON(C)C(=O)c1ccc(-c2cnc3cnc(C(=O)N(C)c4ccc(C#N)cc4)cn23)cc1 [Compound 185, N-(4-cyanophenyl)-3-{4-[methoxy(methyl)carbamoyl]phenyl}-N-methylimidazo[1,2-a]pyrazine-6-carboxamide] | 7170 |
| CCN(CC)C(=O)c1ccc(-c2cnc3cnc(C(=O)N(C)c4ccc(C#N)cc4)cn23)cc1 [Compound 188, N-(4-cyanophenyl)-3-[4-(diethylcarbamoyl)phenyl]-N-methylimidazo[1,2-a]pyrazine-6-carboxamide] | > 10000 |
| CN(C(=O)c1cn2c(-c3cnn(C)c3)cnc2cn1)c1ccc(C#N)cc1 [Compound 189, N-(4-cyanophenyl)-N-methyl-3-(1-methyl-1H-pyrazol-4-yl)imidazo[1,2-a]pyrazine-6-carboxamide] | 7890 |
| CN(C(=O)c1cn2c(-c3cccc(C#N)c3)cnc2cn1)c1ccc(C#N)cc1 [Compound 191, 3-(3-cyanophenyl)-N-(4-cyanophenyl)-N-methylimidazo[1,2-a]pyrazine-6-carboxamide] | 7730 |
| CN(C(=O)c1cn2c(-c3ccc(C4CCCN4)cc3)cnc2cn1)c1ccc(C#N)cc1 (stereo not drawn) [Compound 193, N-(4-cyanophenyl)-N-methyl-3-[4-(pyrrolidin-2-yl)phenyl]imidazo[1,2-a]pyrazine-6-carboxamide] | 8590 |
| CN(C(=O)c1cn2c(-c3cccnc3)cnc2cn1)c1ccc(C#N)cc1 [Compound 195, N-(4-cyanophenyl)-N-methyl-3-(pyridin-3-yl)imidazo[1,2-a]pyrazine-6-carboxamide] | > 10000 |
| CN(C(=O)c1cn2c(-c3ccc(Cl)cn3)cnc2cn1)c1ccc(C#N)cc1 [Compound 196, 3-(5-chloropyridin-2-yl)-N-(4-cyanophenyl)-N-methylimidazo[1,2-a]pyrazine-6-carboxamide] | 9350 |
| CN(C(=O)c1cn2c(-c3ccc(S(=O)(=O)N(C)C)cc3)cnc2cn1)c1ccc(C#N)cc1 [Compound 197, N-(4-cyanophenyl)-3-[4-(dimethylsulfamoyl)phenyl]-N-methylimidazo[1,2-a]pyrazine-6-carboxamide] | > 10000 |
| CC1CCN(c2nc(-c3cnc4cnc(C(=O)N(C)c5ccc(C#N)cc5)cn34)cs2)CC1 [Compound 198, N-(4-cyanophenyl)-N-methyl-3-[2-(4-methylpiperidin-1-yl)-1,3-thiazol-4-yl]imidazo[1,2-a]pyrazine-6-carboxamide] | > 10000 |
| Cc1cccc(-c2cnc3cnc(C(=O)N(C)c4ccc(C#N)cc4)cn23)c1 [Compound 199, N-(4-cyanophenyl)-N-methyl-3-(3-methylphenyl)imidazo[1,2-a]pyrazine-6-carboxamide] | 7320 |
| CN(C(=O)c1cn2c(-c3cn[nH]c3)cnc2cn1)c1ccc(C#N)cc1 [Compound 200, N-(4-cyanophenyl)-N-methyl-3-(1H-pyrazol-4-yl)imidazo[1,2-a]pyrazine-6-carboxamide] | > 10000 |
| CN1CCc2cc(-c3cnc4cnc(C(=O)N(C)c5ccc(C#N)cc5)cn34)ccc21 [Compound 201, N-(4-cyanophenyl)-N-methyl-3-(1-methyl-2,3-dihydro-1H-indol-5-yl)imidazo[1,2-a]pyrazine-6-carboxamide] | 1080 |
| CN(C(=O)c1cn2c(-c3ccc4nonc4c3)cnc2cn1)c1ccc(C#N)cc1 [Compound 202, 3-(2,1,3-benzoxadiazol-5-yl)-N-(4-cyanophenyl)-N-methylimidazo[1,2-a]pyrazine-6-carboxamide] | > 10000 |
| CN(C(=O)c1cn2c(-c3cnc4c(c3)ncn4C)cnc2cn1)c1ccc(C#N)cc1 [Compound 203, N-(4-cyanophenyl)-N-methyl-3-{3-methyl-3H-imidazo[4,5-b]pyridin-6-yl}imidazo[1,2-a]pyrazine-6-carboxamide] | 6490 |
| CN(C(=O)c1cn2c(-c3ccc4c(c3)CC(=O)N4)cnc2cn1)c1ccc(C#N)cc1 [Compound 204, N-(4-cyanophenyl)-N-methyl-3-(2-oxo-2,3-dihydro-1H-indol-5-yl)imidazo[1,2-a]pyrazine-6-carboxamide] | 6510 |
| CN(C(=O)c1cn2c(-c3ccc4c(cnn4C)c3)cnc2cn1)c1ccc(S(C)(=O)=O)cc1 [Compound 205, N-(4-methanesulfonylphenyl)-N-methyl-3-(1-methyl-1H-indazol-5-yl)imidazo[1,2-a]pyrazine-6-carboxamide] | 7450 |
| CN(C(=O)c1cn2c(-c3ccc(-c4ccnn4C)cc3)cnc2cn1)c1ccc(C#N)cc1 [Compound 208, N-(4-cyanophenyl)-N-methyl-3-[4-(1-methyl-1H-pyrazol-5-yl)phenyl]imidazo[1,2-a]pyrazine-6-carboxamide] | 724 |
